{
  "source": "paper PMC8878317",
  "about": "“Chemogenomics identifies acetyl-coenzyme A synthetase as a target for malaria treatment and prevention” (Cell Chemical Biology, 2022)",
  "test_system": "P. falciparum 3D7 parasites",
  "assay": "Metabolomic profiling of compound-treated parasites (LC/MS);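 on Metabolite data: 3-Phosphoglycerate: Log2 fold change in abundance versus untreated parasite controls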;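 on Metabolite data: Myo-Inositol: Log2 fold change in abundance versus untreated parasite controls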;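 on Metabolite data: N-Carbamoyl-L-Aspartate: Log2 fold change in abundance versus untreated parasite controls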;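 on Metabolite data: Nicotinate: Log2 fold change in abundance versus untreated parasite controls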",
  "format": "cell-based",
  "set-up": "Metabolite data: dTMP / Metabolite data: GMP / Metabolite data: S-Adenosyl-L-Homocysteine / Metabolite data: 1_3-Bisphosphoglyceric acid: scale not given here",
  "protocol": "The metabolite extraction protocol was performed as described elsewhere ([Allman et al., 2016]). Briefly, 1 mL of trophozoites that were magnetically purified to a concentration of 1×10^8 parasites/mL were placed into wells with 4 mL of RPMI 1640 media and allowed to recover for one hour. […] The culture was incubated for another 2.5 hr. The culture was centrifuged and quenched with 90% methanol containing 0.25 μM ^13C,^15N-Labeled-Aspartate, vortexed, and centrifuged. The supernatant was transferred to a new tube and dried for storage. Prior to analysis, the samples were resuspended to a final concentration of 1×10^8 parasites/mL in a solution of 3% methanol:water containing 1 μM chlorpropamide as an internal standard.\nThe chromatographic conditions used in this experiment were performed with slight modifications from previous methods ([Zhang et al., 2018]). Briefly, a Waters XSelect HSS C18 column was used on a gradient reverse-phase chromatographic configuration with 97:3 water:methanol with 10 mM tributylamine and 15 mM acetic acid (solvent A) and methanol (solvent B). A Thermo-Scientific Exactive Plus Orbitrap mass spectrometer was operated in negative mode for the detection of the metabolites. Peak picking and integration were performed using El-Maven LC/MS data processing software. The peak data were then exported to Excel where metabolite areas were normalized to the internal standards, blank subtracted, and averaged by condition.",
  "data": [
    {"smiles": "C[C@H]1Cc2c([nH]c3cc(Cl)c(F)cc23)[C@@]2(N1)C(=O)Nc1ccc(Cl)cc12", "note": "[NITD609]", "values": [
      {"measurement": "Metabolite data: 1_3-Bisphosphoglyceric acid", "value": 0},
      {"measurement": "Metabolite data: 2_3-Diphosphoglyceric acid", "value": -2.22},
      {"measurement": "Metabolite data: 3-Phosphoglycerate", "value": 0.01},
      {"measurement": "Metabolite data: 4-Aminobutyrate", "value": -0.54},
      {"measurement": "Metabolite data: 4-Phosphopantothenate", "value": -0.15},
      {"measurement": "Metabolite data: 4-phosphopantetheine", "value": 0},
      {"measurement": "Metabolite data: 5-aminopentanoic acid", "value": 0},
      {"measurement": "Metabolite data: 5-phosphoribosyl-1-pyrophosphate", "value": 0},
      {"measurement": "Metabolite data: 6-Phospho-D-Gluconate", "value": -0.28},
      {"measurement": "Metabolite data: ADP-D-Glucose", "value": 0.02},
      {"measurement": "Metabolite data: Acetyl-CoA", "value": -0.54},
      {"measurement": "Metabolite data: Acetyllysine", "value": -1.93},
      {"measurement": "Metabolite data: Aconitate", "value": 0.62},
      {"measurement": "Metabolite data: CDP", "value": -0.29},
      {"measurement": "Metabolite data: CDP-Ethanolamine", "value": -0.28},
      {"measurement": "Metabolite data: CDP-choline", "value": 0},
      {"measurement": "Metabolite data: CMP", "value": 1.24},
      {"measurement": "Metabolite data: CTP", "value": -1.27},
      {"measurement": "Metabolite data: Citrate/Isocitrate", "value": 0.19},
      {"measurement": "Metabolite data: Cyclic-AMP", "value": -1.16},
      {"measurement": "Metabolite data: Dihydroorotate", "value": -2.01},
      {"measurement": "Metabolite data: FAD", "value": -1.31},
      {"measurement": "Metabolite data: FMN", "value": -1},
      {"measurement": "Metabolite data: Fructose-1,6-Bisphosphate", "value": -1.13},
      {"measurement": "Metabolite data: Fumarate", "value": -0.06},
      {"measurement": "Metabolite data: GDP", "value": -2.58},
      {"measurement": "Metabolite data: GMP", "value": -2.42},
      {"measurement": "Metabolite data: GTP", "value": -1.11},
      {"measurement": "Metabolite data: Glucose-1/6-Phosphate", "value": -0.9},
      {"measurement": "Metabolite data: Glutathione Disulfide", "value": -0.38},
      {"measurement": "Metabolite data: Hexose", "value": 0},
      {"measurement": "Metabolite data: Hydroxyisocaproic acid", "value": 0},
      {"measurement": "Metabolite data: Indole", "value": 0.17},
      {"measurement": "Metabolite data: Ketoleucine", "value": 0},
      {"measurement": "Metabolite data: L-arginino-succinate", "value": 0},
      {"measurement": "Metabolite data: Lactate", "value": -1.31},
      {"measurement": "Metabolite data: Malate", "value": -0.06},
      {"measurement": "Metabolite data: Myo-Inositol", "value": -3.27},
      {"measurement": "Metabolite data: N-Acetyl-Glutamate", "value": -0.27},
      {"measurement": "Metabolite data: N-Acetyl-L-Alanine", "value": -1.42},
      {"measurement": "Metabolite data: N-Acetyl-L-Ornithine", "value": -1.27},
      {"measurement": "Metabolite data: N-Carbamoyl-L-Aspartate", "value": -4.57},
      {"measurement": "Metabolite data: NAD+", "value": -0.4},
      {"measurement": "Metabolite data: NADH", "value": 0.03},
      {"measurement": "Metabolite data: NADP+", "value": -0.12},
      {"measurement": "Metabolite data: NADPH", "value": 0.35},
      {"measurement": "Metabolite data: Nicotinate", "value": 0.78},
      {"measurement": "Metabolite data: Octulose 8/1-Phosphate", "value": -1.92},
      {"measurement": "Metabolite data: Orotate", "value": 0.91},
      {"measurement": "Metabolite data: PD", "value": 0},
      {"measurement": "Metabolite data: PE", "value": 0},
      {"measurement": "Metabolite data: PEEK", "value": 0},
      {"measurement": "Metabolite data: Phenol Red", "value": 0},
      {"measurement": "Metabolite data: Pyroglutamic acid", "value": -0.06},
      {"measurement": "Metabolite data: S-Adenosyl-L-Homocysteine", "value": -1.64},
      {"measurement": "Metabolite data: S-methyl-5'-thioadenosine", "value": -0.53},
      {"measurement": "Metabolite data: SD", "value": 0},
      {"measurement": "Metabolite data: Sedoheptulose Bisphosphate", "value": -1.34},
      {"measurement": "Metabolite data: UDP", "value": -0.96},
      {"measurement": "Metabolite data: UDP-D-Glucose", "value": -0.2},
      {"measurement": "Metabolite data: UDP-D-Glucuronate", "value": -0.36},
      {"measurement": "Metabolite data: UDP-N-Acetyl-Glucosamine", "value": 0.03},
      {"measurement": "Metabolite data: UMP", "value": -0.38},
      {"measurement": "Metabolite data: UTP", "value": -2.05},
      {"measurement": "Metabolite data: a-ketoglutarate", "value": 0.5},
      {"measurement": "Metabolite data: acetyl-aspartate", "value": 0},
      {"measurement": "Metabolite data: arginine", "value": 0},
      {"measurement": "Metabolite data: asparagine", "value": 0},
      {"measurement": "Metabolite data: aspartate", "value": 0},
      {"measurement": "Metabolite data: biotin", "value": 0},
      {"measurement": "Metabolite data: chlorpropamide", "value": 0},
      {"measurement": "Metabolite data: coenzyme A", "value": 0},
      {"measurement": "Metabolite data: dAMP", "value": 2.56},
      {"measurement": "Metabolite data: dATP", "value": -0.71},
      {"measurement": "Metabolite data: dCDP", "value": 1.68},
      {"measurement": "Metabolite data: dCMP", "value": 1.5},
      {"measurement": "Metabolite data: dCTP", "value": 0.45},
      {"measurement": "Metabolite data: dGDP/ADP", "value": 0},
      {"measurement": "Metabolite data: dGMP/AMP", "value": -1.14},
      {"measurement": "Metabolite data: dGTP/ATP", "value": 0},
      {"measurement": "Metabolite data: dTDP", "value": 2.45},
      {"measurement": "Metabolite data: dTMP", "value": 3.96},
      {"measurement": "Metabolite data: dTTP", "value": 1.4},
      {"measurement": "Metabolite data: folate", "value": 0},
      {"measurement": "Metabolite data: glucono-lactone", "value": 0},
      {"measurement": "Metabolite data: glutamate", "value": 0},
      {"measurement": "Metabolite data: glutamine", "value": 0},
      {"measurement": "Metabolite data: glutathione", "value": 0},
      {"measurement": "Metabolite data: histidine", "value": 0},
      {"measurement": "Metabolite data: hydroxyproline/Aminolevulinate", "value": 0},
      {"measurement": "Metabolite data: isoleucine", "value": 0},
      {"measurement": "Metabolite data: leucine", "value": 0},
      {"measurement": "Metabolite data: maleic acid", "value": 0},
      {"measurement": "Metabolite data: methionine", "value": 0},
      {"measurement": "Metabolite data: nicotinamide mononucleotide", "value": 0},
      {"measurement": "Metabolite data: orotidine-5'-phosphate", "value": 0}
    ]}
  ]
}
